Experimental findings from patent US9746463B2 (THE TRUSTEES OF COLUMBIA UNIVERSITY IN THE CITY OF NEW YORK, priority 2006, dated 2017) are described below.

Holding throughout (type): in vivo, mouse
The nature of assay [1]: Osteocalcin subcutaneous infusion in GTG-induced obesity. On the procedure:
FIG. 14. […] Wt mice were injected with gold thioglucose (GTG) or vehicle to induce hyperphagia and obesity. Two weeks later they were implanted with subcutaneous osmotic pumps infusing […] of recombinant osteocalcin or PBS for 28 days before. Body weight gain was recorded thereafter at indicated days.
The effect of uncarboxylated osteocalcin on GTG-induced obesity was investigated (FIG. 14). Wild type mice were injected with gold thioglucose (GTG) to induce hyperphagia and obesity or vehicle. Two weeks later they were implanted with subcutaneous osmotic pumps infusing 1 ng/hr of recombinant uncarboxylated osteocalcin or PBS for 28 days. […] At 28 days, body weight was reduced by about 15% with uncarboxylated osteocalcin treatment.

The nature of assay [2]: Osteocalcin subcutaneous infusion in wt mice: glycemia. As to conditions: wild type mice, 0.3, 1 and 3 ng/hour subcutaneously for 28 days, vs PBS. How it is done: FIG. 10. […] Indicated doses of recombinant osteocalcin or PBS were infused subcutaneously for 28 days in wt mice. Blood glucose was measured at indicated days.
An in vivo experiment was conducted in which the effect of undercarboxylated osteocalcin on glycemia was monitored. Wild type mice were infused with 3 different amounts of mouse recombinant undercarboxylated osteocalcin or placebo (PBS) subcutaneously for 28 days (0.3, 1 and 3 ng/hour).

Assay [3] in a line: Osteocalcin subcutaneous infusion in wt mice: body weight and gonadal fat pad mass. How it is done: (FIG. 13A) Indicated doses of recombinant osteocalcin or PBS were infused subcutaneously for 28 days in wt mice. Body weight was recorded at indicated days. (FIG. 13B) Gonadal fat pad mass was measured after 28 days.
In another in vivo experiment, the effect of uncarboxylated osteocalcin on body weight and fat pad mass was monitored (FIG. 13). Wild type mice were infused subcutaneously for 28 days with PBS or uncarboxylated osteocalcin at 0.3, 1 or 3 ng/hour. […] (FIG. 13) Gonadal fat pad mass, measured after 28 days, decreased by about %18 with 3 ng/hour uncarboxylated osteocalcin treatment.

The nature of assay [4]: Osteocalcin subcutaneous infusion in wt mice: insulin sensitivity after insulin injection. To be noted: wild type mice, 0.3 or 3 ng/hour subcutaneously for 18 days, then insulin injection, 0-120 minutes, vs PBS. How it is done: FIG. 12. […] Wt mice were infused subcutaneously with indicated doses of recombinant osteocalcin or PBS for 18 days before receiving a single injection of insulin. Blood glucose was measured thereafter at indicated times.
Metabolic studies. For glucose tolerance test (GTT), glucose (2 g/kg body weight (BW)) was injected intraperitoneally (IP) after an overnight fast and blood glucose was monitored using blood glucose strips and the Accu-Check glucometer (Roche) at indicated times. For glucose stimulated insulin secretion test (GSIS), glucose (3 g/kg BW) was injected IP after an overnight fast; sera were collected from tails and insulin measured as described (Mauvais-Jarvis et al., 2000). For insulin tolerance test (ITT), mice were fasted for six hours, injected IP with insulin (0.2 U/kg BW) and blood glucose levels were measured at indicated times as described (Mauvais-Jarvis et al., 2002). ITT data are presented as percentage of initial blood glucose concentration. […] Streptozotocin ([…] single injection, Sigma) was injected IP and blood glucose measured as described above every 2 days thereafter. […] Food intake was measured using metabolic cages as the daily change of food weight. Energy expenditure was measured using metabolic cages connected to a calorimeter (Columbus Instrument). Heat values (Kcal/Hr) were recorded over 2 days and reported to each mouse BW. […]

Where [5] appears, read: listed as recombinant osteocalcin.

Ends that are not written are not given here.

On to “uncarboxylated osteocalcin: Recombinant mouse osteocalcin bacterially produced as GST fusion, cleaved with thrombin; completely undercarboxylated at all three sites (YLGASVPSPDPLEPTREQCELNPACDELSDQYGLKTAYKRIYGITI; not fully specified; ends and bridges not checked; UniProt P86546 50-95, looked up)”, for which the body weight gain result in assay [1] (GTG-injected wild type mice, 1 ng/hr by osmotic pump for 28 days, from 7 days on, vs PBS) is “significantly reduced”. Further, in assay [1] (GTG-injected wild type mice, 1 ng/hr, at 28 days), the “reduction of body weight” value was “about 15%”. Besides, the GTG-induced obesity entry in assay [1] (wt mice, infusion for 28 days (figure legend)) is on record as “prevents GTG-induced obesity”. Also, the “glycemia (blood glucose)” value in assay [2] (setting [5]) is “decreases glycemia”; in assay [2] (listed as undercarboxylated osteocalcin), “decreased glycemia”. The “decrease of gonadal fat pad mass” value in assay [3] (3 ng/hour, measured after 28 days) is listed as ~18%. Further, in assay [3] (indicated doses infused subcutaneously for 28 days (figure legend)), the fat mass result is “decreases fat mass”. Further, in assay [3] (the other doses (0.3, 1 ng/hour), 28 days), the “gonadal fat pad mass” value is listed as “did not significantly decrease fat pad mass”. Further, the body weight entry in assay [3] (wild type mice, 0.3, 1 or 3 ng/hour subcutaneously for 28 days, highest dose most effective) was “slightly reduced”. Also, the insulin sensitivity result in assay [4] is listed as “increased”; in assay [4] (setting [5]), “increases insulin sensitivity”.
